Source: patent publication US8748415B2 (priority 2011, dated 2014)

Tested on: recombinant NL4-3 virus (Renilla luciferase in nef, Gag P373S)
Assay: HIV cell culture assay (luciferase activity in MT-2 cells infected with NLRluc recombinant virus)
Format: cell-based
Settings: NL43, MT-2 cells infected 4-5 days with NLRluc recombinant virus
How it was run: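 Activity was read as luciferase output (Dual Luciferase reagents premixed with lysis solution) after 4–5 days of infection in serially diluted inhibitor. Host cells were MT-2 in 10% FBS RPMI. The reporter virus came from transfected 293T cells and was titered on MT-2.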

Compound	EC50 (class symbol) [nM]	EC50 (numeric value) [nM]
C=C(C)[C@@H]1CC[C@]2(CNC(=O)CCN3CCNCC3)CC[C@]3(C)[C@H](CC[C@@H]4[C@@]5(C)CC=C(c6ccc(C(=O)O)cc6)C(C)(C)[C@@H]5CC[C@]43C)[C@@H]12 [Example 141, 4-((1R,3aS,5aR,5bR,7aR,11aS,11bR,13aR,13bR)-5a,5b,8,8,11a-pentamethyl-3a-((3-(piperazin-1-yl)propanamido)methyl)-1-(prop-1-en-2-yl)-2,3,3a,4,5,5a,5b,6,7,7a,8,11,11a,11b,12,13,13a,13b-octadecahydro-1H-cyclopenta[a]chrysen-9-yl)benzoic acid]	< 100	
C=C(C)[C@@H]1CC[C@]2(CNCC(=O)N3CCC(C(=O)O)CC3)CC[C@]3(C)[C@H](CC[C@@H]4[C@@]5(C)CC=C(c6ccc(C(=O)O)cc6)C(C)(C)[C@@H]5CC[C@]43C)[C@@H]12 [Example 112, 1-(2-(((1R,3aS,5aR,5bR,7aR,11aS,11bR,13aR,13bR)-9-(4-carboxyphenyl)-5a,5b,8,8,11a-pentamethyl-1-(prop-1-en-2-yl)-2,3,3a,4,5,5a,5b,6,7,7a,8,11,11a,11b,12,13,13a,13b-octadecahydro-1H-cyclopenta[a]chrysen-3a-yl)methylamino)acetyl)piperidine-4-carboxylic acid]	< 100	
C=C(C)[C@@H]1CC[C@]2(CNCCCN3C(=O)CCC3=O)CC[C@]3(C)[C@H](CC[C@@H]4[C@@]5(C)CC=C(c6ccc(C(=O)O)cc6)C(C)(C)[C@@H]5CC[C@]43C)[C@@H]12 [Example 71, 4-((1R,3aS,5aR,5bR,7aR,11aS,11bR,13aR,13bR)-3a-((3-(2,5-dioxopyrrolidin-1-yl)propylamino)methyl)-5a,5b,8,8,11a-pentamethyl-1-(prop-1-en-2-yl)-2,3,3a,4,5,5a,5b,6,7,7a,8,11,11a,11b,12,13,13a,13b-octadecahydro-1H-cyclopenta[a]chrysen-9-yl)benzoic acid]	< 100	
C=C(C)[C@@H]1CC[C@]2(CNCCC(=O)N(C)C)CC[C@]3(C)[C@H](CC[C@@H]4[C@@]5(C)CC=C(c6ccc(C(=O)O)cc6)C(C)(C)[C@@H]5CC[C@]43C)[C@@H]12 [Example 75, 4-((1R,3aS,5aR,5bR,7aR,11aS,11bR,13aR,13bR)-3a-((3-(dimethylamino)-3-oxopropylamino)methyl)-5a,5b,8,8,11a-pentamethyl-1-(prop-1-en-2-yl)-2,3,3a,4,5,5a,5b,6,7,7a,8,11,11a,11b,12,13,13a,13b-octadecahydro-1H-cyclopenta[a]chrysen-9-yl)benzoic acid]	< 100	
C=C(C)[C@@H]1CC[C@]2(CNCCC(=O)N3CCC[C@@H]3C(=O)O)CC[C@]3(C)[C@H](CC[C@@H]4[C@@]5(C)CC=C(c6ccc(C(=O)O)cc6)C(C)(C)[C@@H]5CC[C@]43C)[C@@H]12 [Example 100, (R)-1-(3-(((1R,3aS,5aR,5bR,7aR,11aS,11bR,13aR,13bR)-9-(4-carboxyphenyl)-5a,5b,8,8,11a-pentamethyl-1-(prop-1-en-2-yl)-2,3,3a,4,5,5a,5b,6,7,7a,8,11,11a,11b,12,13,13a,13b-octadecahydro-1H-cyclopenta[a]chrysen-3a-yl)methylamino)propanoyl)pyrrolidine-2-carboxylic acid]	< 100	
C=C(C)[C@@H]1CC[C@]2(CNCCCN(CCO)CCO)CC[C@]3(C)[C@H](CC[C@@H]4[C@@]5(C)CC=C(c6ccc(C(=O)O)cc6)C(C)(C)[C@@H]5CC[C@]43C)[C@@H]12 [Example 60, 4-((1R,3aS,5aR,5bR,7aR,11aS,11bR,13aR,13bR)-3a-((3-(bis(2-hydroxyethyl)amino)propylamino)methyl)-5a,5b,8,8,11a-pentamethyl-1-(prop-1-en-2-yl)-2,3,3a,4,5,5a,5b,6,7,7a,8,11,11a,11b,12,13,13a,13b-octadecahydro-1H-cyclopenta[a]chrysen-9-yl)benzoic acid]	< 100	
C=C(C)[C@@H]1CC[C@]2(CN(CCCN3CCS(=O)(=O)CC3)C3CC3)CC[C@]3(C)[C@H](CC[C@@H]4[C@@]5(C)CC=C(c6ccc(C(=O)O)cc6)C(C)(C)[C@@H]5CC[C@]43C)[C@@H]12 [Example 84, 4-((1R,3aS,5aR,5bR,7aR,11aS,11bR,13aR,13bR)-3a-((cyclopropyl(3-(1,1-dioxido-4-thiomorpholinyl)propyl)amino)methyl)-1-isopropenyl-5a,5b,8,8,11a-pentamethyl-2,3,3a,4,5,5a,5b,6,7,7a,8,11,11a,11b,12,13,13a,13b-octadecahydro-1H-cyclopenta[a]chrysen-9-yl)benzoic acid]	< 100	
C=C(C)[C@@H]1CC[C@]2(CNCC3CCCN3CC)CC[C@]3(C)[C@H](CC[C@@H]4[C@@]5(C)CC=C(c6ccc(C(=O)O)cc6)C(C)(C)[C@@H]5CC[C@]43C)[C@@H]12 (single isomer, unassigned) [Example 4]	< 100	
C=C(C)[C@@H]1CC[C@]2(CNCCCC(=O)OC)CC[C@]3(C)[C@H](CC[C@@H]4[C@@]5(C)CC=C(c6ccc(C(=O)O)cc6)C(C)(C)[C@@H]5CC[C@]43C)[C@@H]12 [Example 38, 4-((1R,3aS,5aR,5bR,7aR,11aS,11bR,13aR,13bR)-3a-((4-methoxy-4-oxobutylamino)methyl)-5a,5b,8,8,11a-pentamethyl-1-(prop-1-en-2-yl)-2,3,3a,4,5,5a,5b,6,7,7a,8,11,11a,11b,12,13,13a,13b-octadecahydro-1H-cyclopenta[a]chrysen-9-yl)benzoic acid]	< 100	
C=C(C)[C@@H]1CC[C@]2(CNCCC(=O)NC(C)(CO)CO)CC[C@]3(C)[C@H](CC[C@@H]4[C@@]5(C)CC=C(c6ccc(C(=O)O)cc6)C(C)(C)[C@@H]5CC[C@]43C)[C@@H]12 [Example 129, 4-((1R,3aS,5aR,5bR,7aR,11aS,11bR,13aR,13bR)-3a-((3-(1,3-dihydroxy-2-methylpropan-2-ylamino)-3-oxopropylamino)methyl)-5a,5b,8,8,11a-pentamethyl-1-(prop-1-en-2-yl)-2,3,3a,4,5,5a,5b,6,7,7a,8,11,11a,11b,12,13,13a,13b-octadecahydro-1H-cyclopenta[a]chrysen-9-yl)benzoic acid]	< 100	
C=C(C)[C@@H]1CC[C@]2(CNC(=O)c3ccc(S(N)(=O)=O)cc3)CC[C@]3(C)[C@H](CC[C@@H]4[C@@]5(C)CC=C(c6ccc(C(=O)O)cc6)C(C)(C)[C@@H]5CC[C@]43C)[C@@H]12 [Example 144, 4-((1R,3aS,5aR,5bR,7aR,11aS,11bR,13aR,13bR)-5a,5b,8,8,11a-pentamethyl-1-(prop-1-en-2-yl)-3a((4-sulfamoylbenzamido)methyl)-2,3,3a,4,5,5a,5b,6,7,7a,8,11,11a,11b,12,13,13a,13b-octadecahydro-1H-cyclopenta[a]chrysen-9-yl)benzoic acid]	< 100	
C=C(C)[C@@H]1CC[C@]2(CNCCN3CCCCC3=O)CC[C@]3(C)[C@H](CC[C@@H]4[C@@]5(C)CC=C(c6ccc(C(=O)O)cc6)C(C)(C)[C@@H]5CC[C@]43C)[C@@H]12 [Example 78, 4-((1R,3aS,5aR,5bR,7aR,11aS,11bR,13aR,13bR)-5a,5b,8,8,11a-pentamethyl-3a-((2-(2-oxopiperidin-1-yl)ethylamino)methyl)-1-(prop-1-en-2-yl)-2,3,3a,4,5,5a,5b,6,7,7a,8,11,11a,11b,12,13,13a,13b-octadecahydro-1H-cyclopenta[a]chrysen-9-yl)benzoic acid]	< 100	
C=C(C)[C@@H]1CC[C@]2(CNCCN3CCNC3=O)CC[C@]3(C)[C@H](CC[C@@H]4[C@@]5(C)CC=C(c6ccc(C(=O)O)cc6)C(C)(C)[C@@H]5CC[C@]43C)[C@@H]12 [Example 77, 4-((1R,3aS,5aR,5bR,7aR,11aS,11bR,13aR,13bR)-5a,5b,8,8,11a-pentamethyl-3a-((2-(2-oxoimidazolidin-1-yl)ethylamino)methyl)-1-(prop-1-en-2-yl)-2,3,3a,4,5,5a,5b,6,7,7a,8,11,11a,11b,12,13,13a,13b-octadecahydro-1H-cyclopenta[a]chrysen-9-yl)benzoic acid]	< 100	
C=C(C)[C@@H]1CC[C@]2(CNC(=O)OCCCN3CCCC3=O)CC[C@]3(C)[C@H](CC[C@@H]4[C@@]5(C)CC=C(c6ccc(C(=O)O)cc6)C(C)(C)[C@@H]5CC[C@]43C)[C@@H]12 [Example 166, 4-((1R,3aS,5aR,5bR,7aR,11aS,11bR,13aR,13bR)-5a,5b,8,8,11a-pentamethyl-3a-(((3-(2-oxopyrrolidin-1-yl)propoxy)carbonylamino)methyl)-1-(prop-1-en-2-yl)-2,3,3a,4,5,5a,5b,6,7,7a,8,11,11a,11b,12,13,13a,13b-octadecahydro-1H-cyclopenta[a]chrysen-9-yl)benzoic acid]	< 100	
C=C(C)[C@@H]1CC[C@]2(CNCCC(=O)N3CCC4(CC3)OCCO4)CC[C@]3(C)[C@H](CC[C@@H]4[C@@]5(C)CC=C(c6ccc(C(=O)O)cc6)C(C)(C)[C@@H]5CC[C@]43C)[C@@H]12 [Example 126]		1
C=C(C)[C@@H]1CC[C@]2(CNCC(=O)N3CCCCC3)CC[C@]3(C)[C@H](CC[C@@H]4[C@@]5(C)CC=C(c6ccc(C(=O)O)cc6)C(C)(C)[C@@H]5CC[C@]43C)[C@@H]12 [Example 110, 4-((1R,3aS,5aR,5bR,7aR,11aS,11bR,13aR,13bR)-5a,5b,8,8,11a-pentamethyl-3a-((2-oxo-2-(piperidin-1-yl)ethylamino)methyl)-1-(prop-1-en-2-yl)-2,3,3a,4,5,5a,5b,6,7,7a,8,11,11a,11b,12,13,13a,13b-octadecahydro-1H-cyclopenta[a]chrysen-9-yl)benzoic acid]	< 100	
